# Measurements as given in patent US20130065964A1, “PERITONEAL DIALYSIS SOLUTION” (UNIVERSIDAD DE CASTILLA LA MANCHA, priority 2010, published 2013).
# Experiments:
# Type in all cases: cell-based
# p38 MAPK = experiment: Phosphorylation of p38 MAPK by Western blot; details: rat PMCs, D-glucose 50 mM, FIG. 8
# From the text: Densitometric analysis of the phosphor-p38 levels normalized with respect to the controls (C). The data is expressed as mean±SEM, n=3. * p<0.05 compared to untreated cells (control). # p<0.05, compared to cells treated with D-glucose in the presence of carrier (0).
# (§1) Rat peritoneal mesothelial cells were isolated by enzymatic digestion in accordance with protocols described in Hjelle J T, Golinska B T, Waters D C, et al. Perit Dial Int 1989; 9: 341-7. Briefly, female rats weighing 200-400 g of the Spragle-Dawley strain were sacrificed pursuant to Royal Decree 1201/2005, of 10 Oct., on protection of animals used for experimental and other scientific purposes. The abdominal cavity was quickly opened and the abdominal wall (peritoneum and smooth muscle) extracted under sterile conditions. […]
# In order to obtain the total protein of the cell cultures, the culture medium was collected and replaced with PBS. […] The protein content of the cell lysates was determined using the Bradford method, following the standard protocol (Vorobiov M, Malki M, Shnaider A, et al. Perit Dial Int 2008; 28: 648-54). A quantity of 20 μg of protein/well of each sample was loaded onto 10% polyacrylamide gels. […] Band intensity was quantified by grey levels using an appropriate image analysis system (Quantity One).
# Collagen III = experiment: Real-time RT-PCR in cultured PMCs exposed to PDF; details: rat PMCs, 1.5% PDF diluted 1:1 in culture medium, 24 hours, aliskiren 10-100 μM, FIG. 10
# Method: (§2) After incubating the rat PMCs in 1.5% PDF diluted 1:1 in culture medium for 24 hours, in the presence or absence of aliskiren (10-100 μM), total RNA was isolated and real-time RT-PCR was carried out as described in Material and Methods. The data is expressed as mean±SEM, n=3. * p<0.05 compared to untreated cells (control). # p<0.05, compared to cells treated with 1.5% PDF in the presence of carrier (0).
# as §1, with “purposes.” for “purposes. The abdominal cavity was quickly opened and the abdominal wall (peritoneum and smooth muscle) extracted under sterile conditions.”
# (§3) The RNA expression was evaluated by real-time RT-PCR in PMCs. […] RNA quality and concentration was evaluated by spectrophotometry (Infinite 200, Tecan, Salzburg, Austria) using 1 μl of the RNA sample. […] The dissociation curves were analysed to confirm the amplification of a single PCR product. […] In each experiment, the mean cycle threshold (CT) was calculated from triplicates for each of the genes studied, enabling comparison of the gene expression after different treatments (Methods 25, 402-408 (2001). In order to normalize the data, the gene expression of β-actin was used as endogenous control.
# Collagen I = experiment: Real-time RT-PCR in cultured PMCs exposed to PDF; details: rat PMCs, 1.5% PDF diluted 1:1 in culture medium, 24 hours, aliskiren 10-100 μM, FIG. 9
# Method: as §2, with “absence of carrier or different concentrations” for “absence”
# (§4) Rat peritoneal mesothelial cells were isolated by enzymatic digestion in accordance with protocols described in Hjelle J T, Golinska B T, Waters D C, et al. Perit Dial Int 1989; 9: 341-7. […]
# as §3
# fibronectin = experiment: Real-time RT-PCR in cultured PMCs exposed to PDF; details: rat PMCs, 1.5% PDF diluted 1:1 in culture medium, 24 hours, aliskiren 10-100 μM, FIG. 11
# Method: as §2, with “absence of carrier or different concentrations” for “absence”
# as §4, §3
smiles,measurement,setting,value
COCCCOc1cc(C[C@@H](C[C@H](N)[C@@H](O)C[C@H](C(=O)NCC(C)(C)C(N)=O)C(C)C)C(C)C)ccc1OC [aliskiren],phosphorylation of protein p38,p38 MAPK,prevented
same,RNAm levels for collagen III,Collagen III,lowered
same,RNAm levels for collagen I,Collagen I,lowered
same,RNAm levels for fibronectin,fibronectin,lowered
